Results from US20050181450A1, “Novel inositol 1,4,5-trisphosphate (IP3) receptor-binding protein and an IP3 indicator” (priority 2002, published 2005).

How the values were obtained:
[1] = target: T1, IRBIT bound to GST-EL (mouse IP3R1 amino acids 1-2217) (Mus musculus, UniProt P11881, N1264K); experiment: Dissociation of IRBIT from GST-EL by eluants (pulldown, immunoblot quantification); assay type: binding
T1 construct: construct a GST-IP3R1 (1-2217) vector (termed GST-EL); made in house; host or cells: Sf9 cells (baculovirus) for GST-EL; IRBIT from mouse cerebellum tissue extract
Procedure: Bound proteins were pulled down with glutathione-Sepharose, and eluted with glutathione (Glu) (a) or 0.1 to 10 μM IP3 (a), IP2 (b), IP4 (c), IP6 (d), or ATP (e). IRBIT in the extract was analyzed with anti-IRBIT antibody and Alexa 680-conjugated secondary antibody (“a” (lower panel) and panels “b” to “e”). GST-EL in the glutathione and 0.1 to 10 μM IP3 eluate was analyzed with anti-GST antibody (a, upper panel). […] The relative intensity was plotted against the concentration of an eluant. Results are shown as the mean±standard deviation from at least three independent experiments.
For dissociation experiments, IRBIT in the diluted high salt extract was pulled down with GST-EL for precipitation and washed as described above. To resins, 100 μl of a wash buffer containing IP3, inositol 4,5-bisphosphate (IP2) (Dojindo), inositol 1,3,4,5-tetrakisphosphate (IP4) (Calbiochem), inositol 1,2,3,4,5,6-hexakisphosphate (IP6) (Calbiochem) or ATP (Amersham Pharmacia Biotech) (0.1, 0.3, 1, 3 or 10 μM) were added. After incubation on ice for 10 minutes, samples were centrifuged at 10,000 rpm for 1 minute, and the supernatant was subjected to immunoblot analysis with anti-IRBIT antibody or goat anti-GST antibody (Amersham Pharmacia Biotech). For quantification, Alexa 680-conjugated goat anti-rabbit IgG (Molecular Probes) was used as a secondary antibody. The fluorescence intensity of the immunoreactive bands of IRBIT was measured using the Odyssey infrared imaging system (Aloka). Quantitative data (the mean±SD from at least three independent experiments) is expressed as a percentage of the amount of IRBIT in 10 μM IP3 eluate.
IRBIT in the high salt extract from the mouse cerebellar crude microsome was trapped with GST-EL. Then elution was attempted with 0.1 to 10 μM IP3, and other inositolpolyphosphates, IP2, IP4, IP6 or ATP. […] It was confirmed that GST-EL was not detected (FIG. 8Aa, upper panel), even with longer exposure. […]

[2] = target: N-terminal region of IP3R1 (amino acids 1-604) (Mus musculus, UniProt P11881); details: cited from earlier work
[3] = target: T2, GST-EL (mouse IP3R1 amino acids 1-2217) (Mus musculus, UniProt P11881, N1264K); experiment: GST pulldown with GST-EL; assay type: binding; details: GFP fusion proteins in Cos-7 cell lysates
T2 construct: construct a GST-IP3R1 (1-2217) vector (termed GST-EL); made in house; host or cells: Sf9 cells (baculovirus)
Procedure: Mouse cerebellar cytosolic fraction was diluted 2-fold with 10 mM Hepes (pH 7.4), 200 mM NaCl, 2 mM EDTA, 1 mM 2-ME and 0.02% Triton X-100. The high salt extract was diluted 5-fold with 10 mM Hepes (pH 7.4), 2 mM EDTA, 1 mM 2-ME and 0.01% Triton X-100. The diluted fractions (the final NaCl concentration of both fractions was 100 mM) were incubated with 20 μg of GST-EL or GST for 2 hours at 4° C. After adding 10 μl of glutathione-Sepharose and another 2 hours of incubation, the resins were washed 5 times with a wash buffer (10 mM Hepes (pH 7.4), 100 mM NaCl, 2 mM EDTA, 1 mM 2-ME, and 0.01% Triton X-100), and bound proteins were eluted with 20 mM glutathione.
The eluted proteins were analyzed by Western blotting with anti-IRBIT antibody. For dephosphorylation, the diluted high salt extract was incubated in the presence of or the absence of Escherichia coli alkaline phosphatase (Toyobo) with 2 mM MgCl2 for 30 minutes at 37° C. 5 mM EDTA was added, and then the resultant was subjected to pulldown assay as described above.
For the determination of the IP3R1-interacting region of IRBIT, Cos-7 cells expressing GFP-tagged full-length IRBIT or its truncated mutants were lysed in a lysis buffer (10 mM Hepes (pH7.4), 100 mM NaCl, 2 mM EDTA, 1 mM 2-ME, 0.5% Nonidet P-40, and protease inhibitor) for 30 minutes at 4° C., followed by centrifugation (100,000×g, 30 minutes). The supernatants were subjected to pulldown assay with GST-EL or GST as described above, and bound proteins were subjected to immunoblot analysis with anti-GFP antibody (Medical & Biological Laboratories).

T1 sequence (P11881 1-2217 N1264K): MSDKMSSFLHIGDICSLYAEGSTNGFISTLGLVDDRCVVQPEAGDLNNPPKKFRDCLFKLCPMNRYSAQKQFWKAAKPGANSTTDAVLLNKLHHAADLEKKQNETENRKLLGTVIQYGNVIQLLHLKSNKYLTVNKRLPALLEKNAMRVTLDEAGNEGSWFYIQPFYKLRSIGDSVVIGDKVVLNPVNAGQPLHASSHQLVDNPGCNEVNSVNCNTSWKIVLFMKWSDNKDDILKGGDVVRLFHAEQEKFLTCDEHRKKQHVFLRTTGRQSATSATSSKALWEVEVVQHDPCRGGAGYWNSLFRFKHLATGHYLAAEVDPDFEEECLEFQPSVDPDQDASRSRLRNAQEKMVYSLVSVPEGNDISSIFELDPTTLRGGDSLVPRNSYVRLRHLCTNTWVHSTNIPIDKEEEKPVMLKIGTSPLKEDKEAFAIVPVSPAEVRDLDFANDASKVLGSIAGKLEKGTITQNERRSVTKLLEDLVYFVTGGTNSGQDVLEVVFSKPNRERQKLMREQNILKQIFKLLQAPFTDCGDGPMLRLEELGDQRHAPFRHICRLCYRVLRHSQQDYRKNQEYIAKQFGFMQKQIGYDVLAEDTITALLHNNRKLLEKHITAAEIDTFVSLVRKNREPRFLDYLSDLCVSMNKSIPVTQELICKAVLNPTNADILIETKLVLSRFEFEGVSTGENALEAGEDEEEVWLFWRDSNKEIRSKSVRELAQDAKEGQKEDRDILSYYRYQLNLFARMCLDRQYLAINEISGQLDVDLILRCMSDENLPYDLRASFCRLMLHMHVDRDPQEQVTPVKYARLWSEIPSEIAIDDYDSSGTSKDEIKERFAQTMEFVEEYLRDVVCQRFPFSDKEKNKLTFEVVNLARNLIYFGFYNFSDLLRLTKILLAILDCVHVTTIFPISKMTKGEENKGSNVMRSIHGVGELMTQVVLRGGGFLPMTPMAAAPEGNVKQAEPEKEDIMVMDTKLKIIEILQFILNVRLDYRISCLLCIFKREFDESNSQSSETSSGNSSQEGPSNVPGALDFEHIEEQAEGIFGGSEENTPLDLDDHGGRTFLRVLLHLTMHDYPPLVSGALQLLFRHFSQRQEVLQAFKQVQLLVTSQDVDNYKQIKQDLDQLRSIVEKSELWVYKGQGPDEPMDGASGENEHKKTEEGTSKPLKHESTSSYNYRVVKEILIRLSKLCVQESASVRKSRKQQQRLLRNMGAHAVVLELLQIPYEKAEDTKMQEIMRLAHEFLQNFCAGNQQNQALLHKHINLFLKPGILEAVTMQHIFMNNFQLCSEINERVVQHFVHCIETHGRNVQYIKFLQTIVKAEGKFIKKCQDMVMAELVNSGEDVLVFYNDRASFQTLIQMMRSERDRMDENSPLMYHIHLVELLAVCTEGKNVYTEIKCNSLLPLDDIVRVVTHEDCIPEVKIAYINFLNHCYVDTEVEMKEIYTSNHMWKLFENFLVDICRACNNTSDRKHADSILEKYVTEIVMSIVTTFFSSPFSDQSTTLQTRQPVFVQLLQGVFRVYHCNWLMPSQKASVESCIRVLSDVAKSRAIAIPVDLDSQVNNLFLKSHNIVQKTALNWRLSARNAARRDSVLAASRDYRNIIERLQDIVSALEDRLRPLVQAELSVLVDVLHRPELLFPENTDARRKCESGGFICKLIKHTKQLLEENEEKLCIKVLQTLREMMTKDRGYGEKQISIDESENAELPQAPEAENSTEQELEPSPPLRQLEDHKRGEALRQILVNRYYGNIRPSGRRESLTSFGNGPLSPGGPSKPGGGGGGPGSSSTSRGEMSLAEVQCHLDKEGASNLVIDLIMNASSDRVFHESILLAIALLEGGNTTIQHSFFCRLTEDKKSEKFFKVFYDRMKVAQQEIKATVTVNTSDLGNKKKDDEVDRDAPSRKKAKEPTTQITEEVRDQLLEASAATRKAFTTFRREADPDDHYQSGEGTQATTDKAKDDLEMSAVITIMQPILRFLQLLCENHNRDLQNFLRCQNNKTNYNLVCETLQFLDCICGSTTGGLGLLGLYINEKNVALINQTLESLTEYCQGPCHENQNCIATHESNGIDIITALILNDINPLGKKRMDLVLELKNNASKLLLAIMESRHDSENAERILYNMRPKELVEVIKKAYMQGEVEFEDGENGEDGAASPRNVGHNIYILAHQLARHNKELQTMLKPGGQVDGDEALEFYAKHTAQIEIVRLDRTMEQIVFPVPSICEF
T2 sequence (P11881 1-2217 N1264K): as above
Sequence of N-terminal region of IP3R1 (amino acids 1-604) (P11881 1-604): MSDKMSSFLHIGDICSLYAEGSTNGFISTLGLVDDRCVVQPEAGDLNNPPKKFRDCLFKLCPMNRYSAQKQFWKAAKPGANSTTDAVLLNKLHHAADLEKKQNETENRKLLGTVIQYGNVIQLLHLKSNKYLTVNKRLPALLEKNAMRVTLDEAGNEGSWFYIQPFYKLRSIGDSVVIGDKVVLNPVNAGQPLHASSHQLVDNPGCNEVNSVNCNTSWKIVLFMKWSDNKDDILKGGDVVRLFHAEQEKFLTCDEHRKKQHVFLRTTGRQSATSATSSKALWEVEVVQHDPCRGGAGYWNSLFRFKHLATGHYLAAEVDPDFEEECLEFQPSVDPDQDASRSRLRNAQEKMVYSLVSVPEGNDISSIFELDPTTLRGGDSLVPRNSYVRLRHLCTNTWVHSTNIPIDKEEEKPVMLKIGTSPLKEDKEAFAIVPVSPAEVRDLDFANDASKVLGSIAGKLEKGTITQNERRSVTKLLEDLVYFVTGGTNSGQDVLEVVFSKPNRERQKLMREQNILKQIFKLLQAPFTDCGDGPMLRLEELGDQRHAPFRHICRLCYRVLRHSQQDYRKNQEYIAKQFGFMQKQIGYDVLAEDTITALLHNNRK

Compound: Nc1ncnc2c1ncn2[C@@H]1O[C@H](COP(=O)(O)OP(=O)(O)OP(=O)(O)O)[C@@H](O)[C@H]1O [ATP]
- dissociation of IRBIT from GST-EL ([1]; 10 μM eluant): did not dissociate

Compound: O=P(O)(O)O[C@@H]1[C@H](O)[C@H](O)[C@@H](OP(=O)(O)O)[C@H](OP(=O)(O)O)[C@H]1O [IP3, inositol 1,4,5-trisphosphate]
- EC50 ([1]; pH 7.4 and 100 mM NaCl, IRBIT from mouse cerebellar high salt extract, read-out: EC50 (IP3 concentration required for half (50%)-maximal dissociation of IRBIT from GST-EL)): ~500 nM
- dissociation efficiency relative to other inositol polyphosphates ([1]; versus IP2, IP4, IP6): approximately 50 times
- affinity lower than the Kd value determined by a conventional assay ([2]; pH 7.4 and 150 mM NaCl versus conventional assay): approximately 7.5 fold
- Kd ([2]; physiological conditions (pH 7.4 and 150 mM NaCl), read-out: Kd of IP3 binding): 336 nM

Compound: GFP-IRBIT (1 to 277): GFP-tagged deletion mutant of IRBIT, amino acids 1-277
- interaction with GST-EL [3]: bound to GST-EL efficiently

Compound: GFP-IRBIT (1-104): GFP-tagged deletion mutant of IRBIT, amino acids 1-104 (N-terminal region)
- interaction with GST-EL [3]: much weaker

Compound: GFP-IRBIT (105-530): GFP-tagged deletion mutant of IRBIT, amino acids 105-530, lacking the N-terminal region
- interaction with GST-EL [3]: did not interact with GST-EL

Compound: GFP-IRBIT: GFP-tagged full-length IRBIT expressed in Cos-7 cells
- interaction with GST-EL [3]: bound to GST-EL efficiently
